Each structure is given as a SMILES string. Residue numbers refer to the chain shown, from its start.

Holding throughout (type): biochemical
One test addresses T1, JAK3 (h) (Homo sapiens, UniProt P52333).
T1 construct: purchased Eurofins
T1 sequence (P52333 1-1124): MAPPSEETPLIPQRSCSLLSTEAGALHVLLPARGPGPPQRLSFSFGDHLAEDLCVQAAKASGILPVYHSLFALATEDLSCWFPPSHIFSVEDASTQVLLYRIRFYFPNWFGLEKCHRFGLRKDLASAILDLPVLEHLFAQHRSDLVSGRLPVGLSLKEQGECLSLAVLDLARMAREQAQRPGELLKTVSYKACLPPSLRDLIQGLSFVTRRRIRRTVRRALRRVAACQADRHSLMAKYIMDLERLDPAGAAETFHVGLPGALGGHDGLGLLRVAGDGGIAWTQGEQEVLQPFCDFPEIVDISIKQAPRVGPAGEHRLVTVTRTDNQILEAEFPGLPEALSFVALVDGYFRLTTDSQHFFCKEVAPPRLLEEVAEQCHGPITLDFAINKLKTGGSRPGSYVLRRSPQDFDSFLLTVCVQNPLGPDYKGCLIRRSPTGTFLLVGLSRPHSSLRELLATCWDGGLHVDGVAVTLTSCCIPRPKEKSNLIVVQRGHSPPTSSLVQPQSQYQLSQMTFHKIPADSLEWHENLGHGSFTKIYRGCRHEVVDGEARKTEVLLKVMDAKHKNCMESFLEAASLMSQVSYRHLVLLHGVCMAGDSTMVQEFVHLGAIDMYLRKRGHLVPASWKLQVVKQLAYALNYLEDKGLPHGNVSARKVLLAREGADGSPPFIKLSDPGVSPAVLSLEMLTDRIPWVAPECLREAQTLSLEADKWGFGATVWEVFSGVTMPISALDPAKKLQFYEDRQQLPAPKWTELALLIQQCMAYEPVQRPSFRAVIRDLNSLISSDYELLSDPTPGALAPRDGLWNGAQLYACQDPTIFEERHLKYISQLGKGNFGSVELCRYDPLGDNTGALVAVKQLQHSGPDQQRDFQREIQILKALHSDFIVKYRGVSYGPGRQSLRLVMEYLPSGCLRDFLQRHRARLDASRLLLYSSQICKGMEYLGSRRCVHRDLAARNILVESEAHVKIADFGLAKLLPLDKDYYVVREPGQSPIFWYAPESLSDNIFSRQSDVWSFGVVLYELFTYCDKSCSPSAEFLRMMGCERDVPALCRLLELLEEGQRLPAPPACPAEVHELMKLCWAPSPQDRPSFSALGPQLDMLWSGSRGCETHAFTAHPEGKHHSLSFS
The test can be described thus: Radioisotope labeling kinase assay (Eurofins), JAK3. As to conditions: 1 μM compound; read-out: Inhibitory activity per unit concentration/Activity % JAK3 (h). How it is done:
(§1) An activity to a human recombinant protein kinase of a series of compounds was determined by a radioisotope labeling method, which was provided by Eurofins Company. A compound to be detected was mixed with a corresponding protein kinase buffer (20 mM propyl sulfonate (MOPS, […].), 1 mM EDTA, 0.10 β-mercaptoethanol, 0.010 Brij-35, […], and 1 mg/mL BSA), the mixture was added into a reaction system (100 μM reaction substrate […], 8 mM MOPS with a pH value of 7.0, 10 mM MgAcetate, 0.2 mM EDTA, and a certain concentration of γ-^33P-ATP). After adding an MgATP composite solution, the reaction was started at room temperature for 40 minutes, and the reaction was terminated by adding 5 μl of […] solution. Then, 10 μl of reaction solution was dropwise added onto a filter and washed with 75 mM phosphoric acid solution for three times, 5 minutes each time, then washed with methanol once again, and dried and subjected to scintillation counting.

The next test deals with T2, Flt3 (D835Y) (h) (Homo sapiens, UniProt P36888, D835Y).
T2 construct: purchased Eurofins
T2 sequence (P36888 27-993 D835Y): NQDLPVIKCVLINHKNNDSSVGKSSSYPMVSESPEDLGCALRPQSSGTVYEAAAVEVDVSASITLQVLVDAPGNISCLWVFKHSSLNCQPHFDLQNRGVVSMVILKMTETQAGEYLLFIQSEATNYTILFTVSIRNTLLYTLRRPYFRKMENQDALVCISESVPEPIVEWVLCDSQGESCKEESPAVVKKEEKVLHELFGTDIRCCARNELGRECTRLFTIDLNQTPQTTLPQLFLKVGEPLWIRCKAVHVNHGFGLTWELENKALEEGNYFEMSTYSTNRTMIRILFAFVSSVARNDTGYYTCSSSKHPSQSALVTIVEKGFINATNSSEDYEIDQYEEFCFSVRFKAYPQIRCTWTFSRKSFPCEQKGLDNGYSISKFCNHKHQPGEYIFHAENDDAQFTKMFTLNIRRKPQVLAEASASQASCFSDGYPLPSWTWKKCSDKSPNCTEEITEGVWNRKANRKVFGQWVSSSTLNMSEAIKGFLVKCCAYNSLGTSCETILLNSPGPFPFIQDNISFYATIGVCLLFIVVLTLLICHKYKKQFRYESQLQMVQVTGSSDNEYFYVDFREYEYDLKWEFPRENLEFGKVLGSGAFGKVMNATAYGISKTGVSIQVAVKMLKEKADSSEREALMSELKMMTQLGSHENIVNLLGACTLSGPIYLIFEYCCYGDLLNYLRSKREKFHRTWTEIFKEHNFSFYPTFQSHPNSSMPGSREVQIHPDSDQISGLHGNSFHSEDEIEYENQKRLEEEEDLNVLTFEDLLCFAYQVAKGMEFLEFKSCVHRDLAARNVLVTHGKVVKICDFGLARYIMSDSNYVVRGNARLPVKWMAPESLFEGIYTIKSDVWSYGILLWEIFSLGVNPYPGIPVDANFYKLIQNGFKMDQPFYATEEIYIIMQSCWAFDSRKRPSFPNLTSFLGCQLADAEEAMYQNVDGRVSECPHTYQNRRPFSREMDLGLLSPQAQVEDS
Briefly: Radioisotope labeling kinase assay (Eurofins), Flt3 (D835Y). To be noted: 1 μM compound; read-out: Inhibitory activity per unit concentration/Activity % Flt3 (D835Y) (h). How it is done: as §1

Another test concerns the target T3, Ab1 (h) (Homo sapiens, UniProt P00519).
T3 construct: purchased Eurofins
Briefly: Radioisotope labeling kinase assay (Eurofins), Ab1. To be noted: 1 μM compound; read-out: Inhibitory activity per unit concentration/Activity % Ab1 (h). As to the method:
as §1

The target in a further test is T4, BTK (h) (Homo sapiens, UniProt Q06187).
T4 construct: purchased Eurofins
Briefly: Radioisotope labeling kinase assay (Eurofins), BTK. As to conditions: 1 μM compound; read-out: Inhibitory activity per unit concentration/Activity % BTK (h). As to the method: as §1

Another test has as its target T5, Flt3 (h) (Homo sapiens, UniProt P36888).
T5 construct: purchased Eurofins
T5 sequence (P36888 27-993): T2 sequence (P36888 27-993 D835Y) with Y809D
The test can be described thus: Radioisotope labeling kinase assay (Eurofins), Flt3. As to conditions: 1 μM compound; read-out: Inhibitory activity per unit concentration/Activity % Flt3 (h). How it is done:
as §1

T4 sequence (Q06187 whole entry): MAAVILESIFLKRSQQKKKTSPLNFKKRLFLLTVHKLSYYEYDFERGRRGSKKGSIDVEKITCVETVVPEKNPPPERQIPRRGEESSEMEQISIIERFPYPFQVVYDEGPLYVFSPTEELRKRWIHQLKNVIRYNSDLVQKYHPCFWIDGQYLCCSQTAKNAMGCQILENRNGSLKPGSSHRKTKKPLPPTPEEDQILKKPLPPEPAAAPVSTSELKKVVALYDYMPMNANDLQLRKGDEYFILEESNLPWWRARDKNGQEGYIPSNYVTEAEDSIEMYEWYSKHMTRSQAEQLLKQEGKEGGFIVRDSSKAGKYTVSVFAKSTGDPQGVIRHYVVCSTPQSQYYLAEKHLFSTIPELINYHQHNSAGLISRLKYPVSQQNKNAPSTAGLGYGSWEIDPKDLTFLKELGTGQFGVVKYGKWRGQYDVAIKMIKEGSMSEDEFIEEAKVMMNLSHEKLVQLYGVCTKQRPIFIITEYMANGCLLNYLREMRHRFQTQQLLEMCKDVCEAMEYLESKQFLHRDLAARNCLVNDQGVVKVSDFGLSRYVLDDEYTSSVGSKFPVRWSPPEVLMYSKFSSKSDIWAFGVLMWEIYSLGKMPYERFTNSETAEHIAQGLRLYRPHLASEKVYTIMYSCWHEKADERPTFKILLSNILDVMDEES
T3 sequence (P00519 whole entry): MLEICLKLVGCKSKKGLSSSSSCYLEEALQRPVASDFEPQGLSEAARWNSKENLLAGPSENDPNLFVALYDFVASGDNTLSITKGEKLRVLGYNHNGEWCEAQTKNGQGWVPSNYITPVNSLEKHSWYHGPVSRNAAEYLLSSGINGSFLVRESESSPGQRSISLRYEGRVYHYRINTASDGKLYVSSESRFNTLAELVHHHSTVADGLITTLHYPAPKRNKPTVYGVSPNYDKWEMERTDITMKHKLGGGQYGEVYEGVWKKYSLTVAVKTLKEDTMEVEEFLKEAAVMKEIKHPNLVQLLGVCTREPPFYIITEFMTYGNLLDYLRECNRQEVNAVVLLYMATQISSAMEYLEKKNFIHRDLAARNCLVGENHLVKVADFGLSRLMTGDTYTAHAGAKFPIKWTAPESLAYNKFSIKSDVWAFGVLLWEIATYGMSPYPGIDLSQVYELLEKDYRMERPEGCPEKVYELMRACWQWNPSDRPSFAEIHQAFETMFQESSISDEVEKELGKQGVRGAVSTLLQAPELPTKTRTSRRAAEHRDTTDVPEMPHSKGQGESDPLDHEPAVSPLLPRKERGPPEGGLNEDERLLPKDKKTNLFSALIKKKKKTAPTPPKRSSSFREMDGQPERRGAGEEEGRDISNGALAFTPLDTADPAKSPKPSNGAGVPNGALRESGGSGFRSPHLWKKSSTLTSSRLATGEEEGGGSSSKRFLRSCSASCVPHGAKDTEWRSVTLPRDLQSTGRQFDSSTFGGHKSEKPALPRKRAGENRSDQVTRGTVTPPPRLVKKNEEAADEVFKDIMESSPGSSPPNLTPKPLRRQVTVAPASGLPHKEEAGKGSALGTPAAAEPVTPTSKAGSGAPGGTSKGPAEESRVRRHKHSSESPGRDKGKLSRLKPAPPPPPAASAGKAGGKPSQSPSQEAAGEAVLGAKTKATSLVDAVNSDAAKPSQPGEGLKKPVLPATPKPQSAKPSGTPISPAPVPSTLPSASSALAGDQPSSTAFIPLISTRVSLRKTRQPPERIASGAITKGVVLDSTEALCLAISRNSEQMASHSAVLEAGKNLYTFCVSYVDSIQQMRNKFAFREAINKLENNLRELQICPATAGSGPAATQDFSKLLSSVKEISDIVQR

Take `CN1CCC(NC(=O)/C=C/COc2ccc3cc2Nc2nccc(n2)-c2cccc(c2)COC/C=C/COC3)C1` (centres unmarked) [XVI-24]: the activity at 1 µM at JAK3 (h) turned out to be 88%; at Flt3 (D835Y) (h), 50%; on Ab1 (h), 81%; on BTK (h), 86%; at Flt3 (h), 82%.
In the same order, the values of `O=C(/C=C/COc1cc2cc(c1)Nc1nccc(n1)-c1cccc(c1)COC/C=C/COC2)N1CCCC1` [XVI-13] are 34%, -2%, 39%, 49% and 24%.
The corresponding values for `CN1C/C=C/COCc2cccc(c2)-c2ccnc(n2)Nc2cc(cc(NC(=O)/C=C/c3cnc[nH]3)c2)C1` [XVI-32] are 30%, 0%, 50%, 82% and 5%.
As for `O=C(/C=C/COc1cc2cc(c1)Nc1nccc(n1)-c1cccc(c1)COC/C=C/COC2)N1CCOCC1` [XVI-14], the activity at 1 µM on JAK3 (h) came out at 21%; on Flt3 (D835Y) (h), 3%; on Ab1 (h), 46%; at BTK (h), 47%; at Flt3 (h) it was 8%.
Consider `CN1C/C=C/COCc2cccc(c2)-c2ccnc(n2)Nc2cc(cc(NC(=O)C#CCN3CCOCC3)c2)C1` [XVII-5], for which the activity at 1 µM on JAK3 (h) was 60%; at Flt3 (D835Y) (h) it was 1%; at Ab1 (h), 45%; at BTK (h) it was 72%; at Flt3 (h), 4%.
The corresponding values for `O=C(/C=C/CNC1CCOC1)Nc1cc2cc(c1)Nc1nccc(n1)-c1cccc(c1)CCC/C=C/COC2` (centres unmarked) [XVI-19] are 6%, -3%, 2%, 17% and 23%.
The corresponding values for `CCCC#CC(=O)Nc1cc2cc(c1)Nc1nccc(n1)-c1cccc(c1)COC/C=C/CN(C)C2` [XVII-4] are 83%, 3%, 52%, 80% and 7%.
On to `O=C(/C=C/CN1CCC(O)C1)Nc1cc2cc(c1)Nc1nccc(n1)-c1cccc(c1)COC/C=C/COC2` (centres unmarked) [XVI-18], for which the activity at 1 µM at JAK3 (h) worked out at 8%; on Flt3 (D835Y) (h), 4%; at Ab1 (h), 2%; on BTK (h) it was 17%; at Flt3 (h), 19%.
On to `N#Cc1ccc(/C=C/C(=O)Nc2cc3cc(c2)Nc2nccc(n2)-c2cccc(c2)COC/C=C/COC3)cc1` [XVI-2], for which the activity at 1 µM on JAK3 (h) was 56%; at Flt3 (D835Y) (h), 3%; on Ab1 (h), 42%; on BTK (h), 61%; on Flt3 (h) it was 12%.
`O=C(/C=C/c1cnc[nH]1)Nc1cc2cc(c1)Nc1nccc(n1)-c1cccc(c1)COC/C=C/COC2` [XVI-7]: the activity at 1 µM on JAK3 (h) is 21%; on Flt3 (D835Y) (h), -1%; at Ab1 (h), 17%; at BTK (h), 45%; at Flt3 (h), 7%.
The corresponding values for `O=C(/C=C/CNC1CCOC1)Nc1cc2cc(c1)Nc1nccc(n1)-c1cccc(c1)COC/C=C/COC2` (centres unmarked) [XVI-15] are 6%, 6%, 7%, 12% and 20%.
In the same order, the values of `CN1C/C=C/COCc2cccc(c2)-c2ccnc(n2)Nc2cc(cc(NC(=O)/C=C/C(F)(F)F)c2)C1` [XVI-29] are 36%, 3%, 60%, 78% and 10%.
The corresponding values for `O=C(/C=C/COc1ccc2cc1Nc1nccc(n1)-c1cccc(c1)COC/C=C/COC2)N1CCOCC1` [XVI-22] are 100%, 41%, 81%, 82% and 96%.
